One data set concerns HEK293. As to the kind of experiment: Antiproliferative activity against human HEK293 cells assessed as cell viability upto 50 nM incubated for 48 hrs by MTT assay. Type of data set: toxicity, cell-based. To be noted: hek293, 48 h, 0.05 µM.
Another data set has as its system A549. The data set is described as follows: Antiproliferative activity against human A549 cells assessed as cell viability at 10 nM incubated for 48 hrs by MTT assay. Type of data set: functional, cell-based. Background: Formazan colour is commonly taken as a measure of viable cells.
Data set [1] concerns MDA-MB-468. As to the kind of experiment: Antiproliferative activity against human MDA-MB-468 cells assessed as cell viability at 10 nM incubated for 48 hrs by MTT assay. In kind it is functional, cell-based.
The test system of data set [2] is MDA-MB-468. As to the kind of experiment: Induction of ferroptosis in human MDA-MB-468 cells assessed as increase in cell viability at 25 nM incubated for 48 hrs. In kind it is functional, cell-based.

The source made the active and inactive calls. No cut-off for these calls is given here.

Turning to `CCCCCCC[C@@H]1CC(=O)NCC(=O)N[C@H]2CSSC[C@H](NC2=O)C(=O)O1`, the Activity entry in the data set on HEK293 was “Non-toxic”.

As to `CC(C)(C)OC(=O)N[C@@H]1CSSC[C@@H](C(=O)OC(C)(C)C)NC1=O`, in the data set on HEK293, the Activity entry is “Non-toxic”.

For the compound `O=C1C[C@@H](c2ccccc2)OC(=O)[C@@H]2CSSC[C@H](NC(=O)[C@@H](Cc3ccccc3)N1)C(=O)N2`, the Activity entry in the data set on HEK293 is “Non-toxic”. Besides, the outcome in the data set on A549 and in the data set on MDA-MB-468 [1] was Active. Take `CC[C@@H]1CC(=O)N[C@H](Cc2ccccc2)C(=O)N[C@H]2CSSC[C@H](NC2=O)C(=O)O1`: the Activity result with HEK293 is recorded as “Non-toxic”. In addition, the result in the data set on A549 and in the data set on MDA-MB-468 [1] was Active. In the case of `CCCCCCC[C@@H]1CC(=O)N[C@H](CC(C)C)C(=O)N[C@H]2CSSC[C@H](NC2=O)C(=O)O1`, the Activity entry in the data set on HEK293 was “Non-toxic”.

On to `CCCCCCC[C@@H]1CC(=O)N[C@H](CO)C(=O)N[C@H]2CSSC[C@H](NC2=O)C(=O)O1`, for which the Activity entry in the data set with HEK293 was “Non-toxic”. On the same count and under the same terms, the entry for `CCCCCCC[C@H]1CC(=O)N[C@H](Cc2ccccc2)C(=O)N[C@H]2CSSC[C@H](NC2=O)C(=O)O1` is “Non-toxic”.

Turning to `CCOC(=O)c1ccc(NC2CCCCC2)c(N)c1`, in the data set on MDA-MB-468 [2], the result was Active.

These data come from ChEMBL document CHEMBL6078706, “Deciphering the Comprehensive Structure-Activity Relationship of Sunshinamide for Breast Cancer Therapy through Dual Modulation of Apoptotic and Ferroptotic Pathways via TrxR1 and Gpx4 Inhibition” (J Med Chem, 2024).
